Columns and labels:
[1] = test system: methicillin-resistant Staphylococcus aureus; experiment: antibacterial effect against drug-resistant bacteria; format: cell-based; conditions: 100 μg/mL
Procedure: The above polypeptide (prepared by Method 1) was added in methicillin-resistant Staphylococcus aureus solutions at concentrations of 10^8 and 10^9 CFU/mL respectively according to the polypeptide concentration gradient, and then co-cultured at 37° C. for 24 hours. The polypeptide was effective in killing methicillin-resistant Staphylococcus aureus in the effective concentration range. The antimicrobial rate of 100 μg/mL of polypeptide solution could reach up to 100% (FIG. 2) and 98% or more (FIG. 3) respectively.

rats [2] = experiment: safety (acute systemic inflammation) after caudal vein injection, blood routine examination; format: in vivo
Procedure: (§1) The polypeptide (prepared by Method 1) of the present disclosure was dissolved in physiological saline at a concentration of 1 mg/mL and injected into rats through the caudal vein at a dose of 8 mg/kg.

Staphylococcus aureus = experiment: antibacterial effect, polypeptide co-cultured with microbe; format: cell-based; conditions: polypeptide 250 μg/mL; 10^8 CFU/mL; co-cultured at 37° C. for 24 hours
Pseudomonas aeruginosa = experiment: as above; format: cell-based; conditions: polypeptide 250 μg/mL; 10^8 CFU/mL; co-cultured at 37° C. for 24 hours
Candida albicans = experiment: as above; format: cell-based; conditions: polypeptide 250 μg/mL; 10^8 CFU/mL; co-cultured at 37° C. for 24 hours
rats [3] = experiment: in vivo hemocompatibility after caudal vein injection, blood routine examination
Procedure: as §1

Escherichia coli = experiment: antibacterial effect, polypeptide co-cultured with microbe; format: cell-based; conditions: polypeptide 250 μg/mL; 10^8 CFU/mL; co-cultured at 37° C. for 24 hours
fibroblasts = experiment: cell viability of fibroblasts, Cell Counting Kit-8; format: cell-based; conditions: DMEM with 10% fetal bovine serum, 48 h, effective concentration range (FIG. 4)
Procedure: The polypeptide (prepared by Method 2) of the disclosure was added at different concentrations to Dulbecco's Modified Eagle's Medium (DMEM) containing fetal bovine serum (10% by volume) and used to culture fibroblasts. Cells were seeded at 10,000 cells per well in 96-well plates, incubated at 37° C. with a medium containing polypeptides at various concentrations as described above, and the cell viability was determined after 48 h using the Cell Counting Kit-8 method.

[4] = MRSA 10^8 CFU/mL, 37° C. 24 hours (FIG. 2)
[5] = MRSA 10^9 CFU/mL, 37° C. 24 hours (FIG. 3)
[6] = 1 mg/mL in physiological saline, caudal vein, 8 mg/kg, 24 h
[7] = rat blood, 24 h after 8 mg/kg caudal vein injection (FIG. 5)
[8] = rat blood 24 h after 8 mg/kg caudal vein injection

## CC1(C)S[C@@H]2[C@H](NC(=O)Cc3ccccc3)C(=O)N2[C@H]1C(=O)O [penicillin G, reference compound]
[1]; [4]
  antimicrobial rate: less than 10%
[1]; [5]
  antimicrobial rate: less than 10%

## hyperbranched polylysine [polypeptide (prepared by Method 1)]
[1]; [4]
  antimicrobial rate: 100%
[1]; [5]
  antimicrobial rate: ≥ 98%
Rats [2]; [6]
  behavior of rats: no abnormal behavior
Rats [2]; 1 mg/mL in physiological saline, caudal vein, 8 mg/kg, after 24 h
  survival of rats: still alive
Rats [2]; rat blood routine examination, 24 h after 8 mg/kg caudal vein injection
  inflammatory features: no inflammatory features
Rats [2]; [7]
  cell concentration of lymphocytes (Lym): in the normal range
  cell concentration of monocytes (Mon): in the normal range
  cell concentration of neutrophils (Neu): in the normal range
  cell concentration of white blood cells (WBC): in the normal range
Staphylococcus aureus
  antibacterial effect: 100%
Pseudomonas aeruginosa
  antibacterial effect: 100%
Candida albicans
  antibacterial effect: 100%
Rats [3]; [6]
  behavior of rats: no abnormal behavior
  survival of rats: survived
Rats [3]; [8]
  concentration of hemoglobin (HGB), in words: in the normal range
  concentration of platelet (PLT), in words: in the normal range
  concentration of red blood cell (RBC), in words: in the normal range
Rats [3]; rat blood 24 h after injection at 1 mg/mL (8 mg/kg), normal range 6.36-9.42
  Red blood cell concentration: 6.3 ± 0.3 10^12/L
Rats [3]; rat blood 24 h after injection at 1 mg/mL (8 mg/kg), normal range 110-143
  Hemoglobin content: 141.8 ± 10.1 g/L
Rats [3]; rat blood 24 h after injection at 1 mg/mL (8 mg/kg), normal range 450-1590
  Platelet concentration: 847.0 ± 140.1 10^9/L
Escherichia coli
  antibacterial effect: 100%

## hyperbranched polylysine [polypeptide (prepared by Method 2)]
fibroblasts
  cytotoxicity (cell viability): not cytotoxic
